Eleven compounds from ChEMBL document CHEMBL1146077, “Synthesis and evaluation of heteroaryl-substituted dihydronaphthalenes and indenes: potent and selective inhibitors of aldosterone synthase (CYP11B2) for the treatment of congestive heart failure and myocardial fibrosis” (J Med Chem, 2006) can be followed below.

As usually defined, the IC50 is the midpoint of a concentration-inhibition curve. What is called inhibition is the drop in the measured response relative to a control, in per cent. High values mean a response far below the control, low ones a response near the control. By Papp is commonly meant a coefficient for how fast a substance crosses the barrier. Usually half-life stands for how long it takes for the measured level to halve. Read a high half-life as slow decline.

For series [1], the target named is T1, Cytochrome P450 11B1, mitochondrial (Homo sapiens, UniProt P15538).
T1 sequence (P15538 whole entry): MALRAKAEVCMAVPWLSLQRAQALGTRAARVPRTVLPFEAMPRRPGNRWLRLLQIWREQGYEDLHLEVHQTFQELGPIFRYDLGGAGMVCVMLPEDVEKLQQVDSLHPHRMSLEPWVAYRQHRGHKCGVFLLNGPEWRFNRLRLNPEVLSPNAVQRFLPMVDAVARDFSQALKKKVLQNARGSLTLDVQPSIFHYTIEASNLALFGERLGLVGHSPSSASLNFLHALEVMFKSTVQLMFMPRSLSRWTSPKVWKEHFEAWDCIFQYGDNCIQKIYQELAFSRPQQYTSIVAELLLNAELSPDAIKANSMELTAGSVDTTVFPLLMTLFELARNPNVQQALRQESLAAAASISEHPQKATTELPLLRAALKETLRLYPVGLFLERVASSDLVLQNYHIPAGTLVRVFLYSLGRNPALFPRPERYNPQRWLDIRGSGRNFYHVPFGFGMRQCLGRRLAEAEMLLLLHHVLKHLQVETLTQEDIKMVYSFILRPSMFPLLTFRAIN
In words: Inhibition of human CYP11B1 expressed in V79 11B1 cells.

For series [2], the target named is T2, Cytochrome P450 11B2, mitochondrial (Homo sapiens, UniProt P19099).
T2 sequence (P19099 whole entry): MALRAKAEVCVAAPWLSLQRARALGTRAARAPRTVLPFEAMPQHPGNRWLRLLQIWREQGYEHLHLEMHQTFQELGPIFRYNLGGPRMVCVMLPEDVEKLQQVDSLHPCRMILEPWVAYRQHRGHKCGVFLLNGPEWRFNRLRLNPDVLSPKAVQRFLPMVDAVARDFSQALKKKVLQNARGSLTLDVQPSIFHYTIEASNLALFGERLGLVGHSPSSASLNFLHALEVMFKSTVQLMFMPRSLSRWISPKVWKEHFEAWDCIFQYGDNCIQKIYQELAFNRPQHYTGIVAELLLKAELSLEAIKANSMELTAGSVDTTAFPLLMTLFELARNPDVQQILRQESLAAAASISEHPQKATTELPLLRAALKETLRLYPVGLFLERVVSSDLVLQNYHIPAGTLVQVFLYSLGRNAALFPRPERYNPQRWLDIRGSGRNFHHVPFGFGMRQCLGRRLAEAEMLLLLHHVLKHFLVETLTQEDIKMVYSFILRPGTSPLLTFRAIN
In words: Inhibition of human CYP11B2 expressed in Schizosaccharomyces pombe at 500 nM.

Series [3] has as its target T2, Cytochrome P450 11B2, mitochondrial. The series can be described thus: Inhibition of human CYP11B2 expressed in V79 11B2 cells.
The nature of series [4]: Permeability in Caco-2 cell. Conditions: human. A general note: Caco-2 monolayers are a common model of the intestinal barrier.
A short description of series [5]: Half life in rat liver microsome. The format is ADME. Conditions: liver microsomes. In general terms: Liver microsomes are vesicles of endoplasmic reticulum, rich in cytochrome P450 enzymes.

On to `CCC1CC(c2cccnc2)=Cc2ccccc21` (stereo not given), for which the results for the IC50 in series [1] and in series [3] were 1620 nM and 176 nM, respectively. For the same compound, 0.5 µM produced 20% inhibition in series [2].

Turning to `C(=C/c1cccnc1)/c1ccccc1`, the IC50 in series [1] was determined as 288 nM; in series [3], 735 nM. This compound also showed an inhibition at 0.5 µM in series [2] of 54%. In turn, `COc1ccc2c(c1)C=C(c1cccnc1)CC2` yielded an IC50 in series [3] of 45 nM. `COc1ccc2c(c1)CCC(c1cccnc1)=C2`: the inhibition at 0.5 µM in series [2] amounted to 98%. In series [4], the Papp came to 13.5 ×10⁻⁶ cm/s. This compound also yielded a half-life in series [5] of 1.12 h.

Take `COc1ccc2c(c1)CCC(n1ccnc1)=C2`: the IC50 in series [3] was found to be 411 nM. As for `C(=C\c1cccnc1)/c1ccccc1`, in series [2], the inhibition at 0.5 µM is 25%. The compound `C1=C(n2ccnc2)CCc2ccccc21` registered an IC50 in series [3] of 334 nM. This lies in the sub-micromolar range.

In series [2], `C1=C(n2ccnc2)Cc2ccccc21` yielded an inhibition at 0.5 µM of 33%. In series [3], this compound returned an IC50 of 448 nM. On to `COc1ccc2c(c1)CCC(c1ccncc1)=C2`, for which the results for the IC50 in series [1] and in series [3] were 2530 nM and 2830 nM, respectively. In series [2], the inhibition at 0.5 µM stood at 15%.

Turning to `CC(C(=O)O)c1cccc(C(=O)c2ccccc2)c1` (stereo not given) [KETOPROFEN], the Papp in series [4] was determined as 25.7 ×10⁻⁶ cm/s. `C[C@]12CC[C@H]3[C@@H](CCC4=CC(=O)CC[C@@]43C)[C@@H]1CC[C@@H]2O` [TESTOSTERONE] yielded a Papp in series [4] of 9.4 ×10⁻⁶ cm/s.
